Tests used:
Assay type in all cases: cell-based, human
[1] = test system: MM1R; test: MTT cell viability assay, myeloma cell line MM1R; conditions: MM1R, MTT, 18 hours, doses 0-50 μM; read-out: IC50, cell viability
Method: (§1) In vitro studies were carried out using six different human MM cell lines, U266, RPMI8226, MM1S, MM1R, U266-LR7, and RPMI-LR5. For ex vivo assays, human primary cells from healthy donors and MM patients were used (Table 1). Human MM cell lines U266, RPMI8226, and MM1.S were acquired from ATCC and lines U266-LR7, RPMI-LR5, and MM1.R were kindly provided by Dr. Enrique Ocio (Hospital Universitario de Salamanca, Spain). The primary cells were obtained from bone marrow (BM) aspirates or peripheral blood (PB) samples, and the peripheral blood mononuclear cells (PBMCs) were isolated by Ficoll-Hypaque centrifugation and washed twice in phosphate buffered saline (PBS) containing 1% BSA. Hematopoietic stem cells and B and T lymphocytes were isolated from healthy PB donors by positive immunomagnetic separation using human MACS CD34+, CD19+, and CD3+ microbeads, respectively. MM plasma cells were obtained from the bone marrow (BM) of patients with an infiltration of cells of more than 30% (Table 1). The MM plasma cells were identified using CD138+, and were then distinguished from the other cell populations by flow cytometry using a suitable combination of antibodies: anti-human CD64-FITC, CD34-PE, CD56-APC, CD38-APC-H7, and CD45-Pacific Blue antibodies (BD Biosciences, San Jose, Calif.). All the cell lines were cultured in RPMI-1640 supplemented with 10% fetal bovine serum (FBS) and 1% penicillin/streptomycin, as recommended by the supplier. For human primary cells, the concentration of FBS was up to 20%.
(§2) The MM cell lines and primary cells were exposed to different doses of indazole compounds, and viability was evaluated at 18, 48, and 72 hours. Pretreatments with the ceramide synthesis inhibitor (FB1), pan-caspase (ZVAD-FMK), and CB antagonists (PGN-8, PGN-37, and PGN-70) were performed for 30 minutes, and then the cells were incubated with indazole compound WIN-55 up to 18 hours. Cell viability was determined using the MTT assay Cell Counting Kit-8 (Dojindo, Kumamoto, Japan) according to the manufacturer's instructions.

[2] = test system: RPMI-LR5; test: MTT cell viability assay, myeloma cell line RPMI-LR5; conditions: RPMI-LRS, MTT, 18 hours, doses 0-50 μM; read-out: IC50, cell viability
Method: as §1, §2

[3] = test system: U266; test: Western blot and immunofluorescence in U266 cells; conditions: U266, 50 μM
Method: The extracts for Western blot were taken after 0, 2, 6, 18, and 24 hours. The cells were lysed according to Gilbert et al., 2002. (J Immunol Methods. 2002, 271:185-201), by adding 2% ASB-14 (Calbiochem, Beeston, United Kingdom) to the isotonic lysis buffer. The protein concentration was determined by Pierce® Microplate BCA Protein Assay kit-Reducing Agent Compatible (Pierce, Rockford, Ill.). The samples were subjected to SDS/PAGE in AnykD precast gels (Bio Rad, Hercules, Calif.) and transferred to PVDF membranes using Trans-Blot® Turbo™ System (Bio-Rad). The membranes were incubated over night at 4° C. with primary antibody in 0.05% Tween 20-Tris buffered saline (TTBS) then with the suitable secondary antibody, and they were subjected to chemiluminescence detection. As a control condition, the cells were treated with DMSO (<0.15%) in RPMI 1640 medium from Gibco (Gaithersburg, Md.).
The antibodies for caspase-2, -8, -9, active caspase-3, -p-Akt (phospho T308), p-Erk (T202+Y204), -p-p38MAPK (phospho T180+Y182), -p-JNK (phospho T183+Y185), -SPT, and the CB1 and CB2 receptors were from Abcam, anti-MCL-1 and -Bcl-xL were from Santa Cruz Biotechnology, anti-PARP was from Cell Signaling Technology, anti-Bax and -Bak were from BD Biosciences. Anti-beta-tubulin was from Sigma-Aldrich. All the horseradish peroxidase (HRP)-conjugated secondary antibodies used were from Jackson ImmunoResearch and produced in a donkey to prevent the possible cross-reactivity when several tests were performed.
The cells treated for 6 hours with indazole compounds were collected and placed on a slide. Immunofluorescence staining was performed as described previously by Vielhaber et al. 2001 (Glycobiology. 2001, 11:451-7) using anti-ceramide as the primary antibody. The ceramide antibody was obtained from Sigma-Aldrich, and the Alexa-488-conjugated secondary antibody was obtained from Abcam. As a control condition, the cells were treated with DMSO (<0.15%) in RPMI 1640 medium from Gibco (Gaithersburg, Md.).

[4] = test system: U937; test: WST-1 cell viability assay, U937; conditions: U937, 18 hours
Method: U937, NB-4, KG-1, and MOLM-13 (DMSZ, Braunschweig, Germany) were cultured in complete RPMI 1640 medium (with 2 mM of L-glutamine, 100 mg of penicillin, 100 μg/ml of streptomycin, and with 10% FBS), supplemented with 10 mM HEPES, 1×NaPuvuvato, and 1× non-essential amino acids.
The cell lines and primary cells were cultured in 96-well plates (5×10e5 cells per well) with the addition of the indicated concentrations of WIN 55,212-2 or PGN cannabinoids in DMSO or with the solvent only in triplicate at 18, 48, and 72 hours. Caspase inhibitor Z-VAD (OMe)-FMK or the CB2 receptor antagonist PGN-8, -37, and -70, together with the cannabinoid WIN-55,212-2, were also added. Cell viability was determined by means of the WST-1 assay [2-(4-iodophenyl)-3-(4-nitrophenyl)-5-(2,4-disulfophenyl)-2H-tetrazolium] according to the manufacturer's instructions (Dojindo Molecular Technologies). Optical densities were measured at 450 nm using a Multiskan™ Go Microplate plate reader (Thermo Fisher Scientific, Waltham, Mass., USA).
Now it will be analyzed whether the exposure to cannabinoids had any effect on the viability of the tumor cells in vitro. […]

SMILES: CS(=O)(=O)O.Cc1c(C(=O)c2cccc3ccccc23)c2cccc3c2n1[C@H](CN1CCOCC1)CO3 [WIN-55, (R)-(+)-[2,3-dihydro-5-methyl-3-(4-morpholinomethyl)-pyrrolo[1,2,3]-1,4-benzoxazin-6-yl]-1-naphthalenylmethanone mesylate]
- IC50 [1]: 12.1 µM
- IC50 [2]: 16.1 µM
- caspase-3 activation (cleaved forms, Western blot) [3]: induction of caspase-3 activation
- expression of endoplasmic reticulum stress marker proteins CHOP, ATF-4, p-IRE1, XBP-1s [3]: slight but sustained decrease
- expression of ceramides (immunofluorescence) ([3]; 6 hours): considerable increase in the expression of ceramides
- expression of p-Akt (phospho-T308) ([3]; early points in time, decrease at later times): significant overexpression of p-Akt
- expression level of serine-palmitoyltransferase (SPT) ([3]; maximum at 18 hours): increased
- % viable cells at 50 μM [4]: 17.2%
- IC50 [4]: 16 µM
